Holding throughout (format): cell-based
In one assay the test system is A. fumigatus s 1008. Briefly: In vitro MIC, NCCLS M38P broth method (RPMI 1640/MOPS pH7), Aspergillus fumigatus. Particulars: A. fumigatus strain 1008.
In another assay the test system is Candida. The assay can be described thus: In vitro MIC, NCCLS M27A, Candida species. On the set-up: MIC, Candida albicans 1.549 / MIC, Candida albicans Y-01-19 / MIC, C. krusei 766-1 / MIC, C. krusei Q. C / MIC, Candida tropicalis ATCC / MIC, C. glabrata 90030: unit not given beside the values; MIC, Candida albicans A 26 / MIC, C. parapsilosis Q. C.: unit not given here. Particulars: for MIC, C. glabrata 90030: C. glabrata strain 90030; for MIC, C. krusei 766-1: C. krusei strain 766-1; for MIC, C. krusei Q. C: C. krusei strain Q. C; for MIC, C. parapsilosis Q. C.: C. parapsilosis strain Q. C.; for MIC, Candida albicans 1.549: Candida albicans strain 1.549; for MIC, Candida albicans A 26: Candida albicans strain A 26; for MIC, Candida albicans Y-01-19: Candida albicans strain Y-01-19.

For another assay, the system named is Cryptococcus neoformans. The assay can be described thus: In vitro MIC, NCCLS M27A, Cryptococcus neoformans. On the set-up: MIC, C. neoformans I: unit not given beside the values; MIC, C. neoformans M 106: unit not given here. The following applies: for MIC, C. neoformans I: C. neoformans strain I; for MIC, C. neoformans M 106: C. neoformans strain M 106.
In the next assay the test system is Histoplasma capsulatum.

Each structure is given as a SMILES string. ≈ marks a conversion by molar mass, not a printed value.

In the case of `Cc1ccc(N2CCN(c3ccc(-n4cnn([C@H](C)[C@](O)(Cn5cncn5)c5ccc(F)cc5F)c4=O)cc3)CC2)c(C)c1` [Compound 19, 2-{[1R2R/1S2S]-2-(2,4-Difluorophenyl)-2-hydroxy-1-methyl-3-(1H-1,2,4-triazol-1-yl)propyl}-4-{4-[4-(2,4-dimethylphenyl)-1-piperazinyl]phenyl}-3-(2H,4H)-1,2,4-triazolone], the “MIC, A. fumigatus 1008” value with A. fumigatus s 1008 was >16. In addition, in the assay with Candida, the “MIC, C. glabrata 90030” value is on record as >16; the “MIC, C. krusei 766-1” value is listed as >16; the “MIC, C. krusei Q. C” value is 0.50; the “MIC, C. parapsilosis Q. C.” value is reported as 0.06. Also, in the assay on Candida, the “MIC, Candida albicans 1.549” value is listed as 1.00; the “MIC, Candida albicans A 26” value is listed as <0.03; the “MIC, Candida albicans Y-01-19” value is given as 1.00; the “MIC, Candida tropicalis ATCC” value is <0.03. In the assay with Cryptococcus neoformans, the “MIC, C. neoformans I” value is given as <0.03 and the “MIC, C. neoformans M 106” value is <0.03. The MIC, H. capsulatum in the assay on Histoplasma capsulatum was determined as 0.5 µg/mL (≈ 0.832 µM).
In the case of `Cc1ccc(N2CCN(c3ccc(-n4cnn([C@H](C)[C@@](O)(Cn5cncn5)c5ccc(F)cc5F)c4=O)cc3)CC2)c(C)c1` [Compound 20, 2-{[1R2S/1S2R]-2-(2,4-Difluorophenyl)-2-hydroxy-1-methyl-3-(1H-1,2,4-triazol-1-yl)propyl}-4-{4-[4-(2,4-dimethylphenyl)-1-piperazinyl]phenyl}-3-(2H,4H)-1,2,4-triazolone], the “MIC, A. fumigatus 1008” value in the assay with A. fumigatus s 1008 is >16. In the assay with Candida, the “MIC, C. glabrata 90030” value is listed as 2.00; the “MIC, C. krusei 766-1” value is >16; the “MIC, C. krusei Q. C” value amounted to 2.00; the “MIC, C. parapsilosis Q. C.” value was determined as 0.12. In addition, in the assay on Candida, the “MIC, Candida albicans 1.549” value is reported as 8.00; the “MIC, Candida albicans A 26” value is given as <0.03; the “MIC, Candida albicans Y-01-19” value was 2.00; the “MIC, Candida tropicalis ATCC” value is on record as <0.03. Further, in the assay on Cryptococcus neoformans, the “MIC, C. neoformans I” value is 0.25 and the “MIC, C. neoformans M 106” value is listed as 0.25. Also, the MIC, H. capsulatum in the assay with Histoplasma capsulatum stood at 0.5 µg/mL (≈ 0.832 µM).
Turning to `Cc1ccc(Cl)cc1N1CCN(c2ccc(-n3cnn([C@H](C)[C@](O)(Cn4cncn4)c4ccc(F)cc4F)c3=O)cc2)CC1` [Compound 21, 2-{[1R2R/1S2S]-2-(2,4-Difluorophenyl)-2-hydroxy-1-methyl-3-(1H-1,2,4-triazol-1-yl)propyl}-4-{4-[4-(5-chloro-2-methylphenyl)-1-piperazinyl]phenyl}-3-(2H,4H)-1,2,4-triazolone], the “MIC, A. fumigatus 1008” value with A. fumigatus s 1008 is on record as 1.00. Also, in the assay on Candida, the “MIC, C. glabrata 90030” value is reported as 0.50; the “MIC, C. krusei 766-1” value worked out at 0.50; the “MIC, C. krusei Q. C” value was 0.25; the “MIC, C. parapsilosis Q. C.” value was 0.06. Moreover, in the assay with Candida, the “MIC, Candida albicans 1.549” value is given as 0.25; the “MIC, Candida albicans A 26” value is listed as <0.03; the “MIC, Candida albicans Y-01-19” value amounted to 0.25; the “MIC, Candida tropicalis ATCC” value is listed as <0.03. In the assay on Cryptococcus neoformans, the “MIC, C. neoformans I” value is recorded as <0.03 and the “MIC, C. neoformans M 106” value is reported as <0.03. In the assay with Histoplasma capsulatum, this molecule registered an MIC, H. capsulatum of 0.12 µg/mL (≈ 0.193 µM).
Turning to `Cc1ccc(Cl)cc1N1CCN(c2ccc(-n3cnn([C@H](C)[C@@](O)(Cn4cncn4)c4ccc(F)cc4F)c3=O)cc2)CC1` [Compound 22, 2-{[1R2S/1S2R]-2-(2,4-Difluorophenyl)-2-hydroxy-1-methyl-3-(1H-1,2,4-triazol-1-yl)propyl}-4-{4-[4-(5-chloro-2-methylphenyl)-1-piperazinyl]phenyl}-3-(2H,4H)-1,2,4-triazolone], the “MIC, A. fumigatus 1008” value in the assay with A. fumigatus s 1008 is given as >16. Besides, in the assay with Candida, the “MIC, C. glabrata 90030” value came to 1.00; the “MIC, C. krusei 766-1” value is reported as 8.00; the “MIC, C. krusei Q. C” value was 1.00; the “MIC, C. parapsilosis Q. C.” value turned out to be 0.25. In the assay with Candida, the “MIC, Candida albicans 1.549” value worked out at 2.00; the “MIC, Candida albicans A 26” value was <0.03; the “MIC, Candida albicans Y-01-19” value was determined as 1.00; the “MIC, Candida tropicalis ATCC” value was <0.03. Further, in the assay on Cryptococcus neoformans, the “MIC, C. neoformans I” value is recorded as 0.12 and the “MIC, C. neoformans M 106” value came out at 0.06. Moreover, the MIC, H. capsulatum against Histoplasma capsulatum was > 16 µg/mL.

The values are drawn from patent US6670363B1, “Azole compounds as therapeutic agents for fungal infections” (Ranbaxy Laboratories Limited, priority 2000, dated 2003).
